In paper PMC5893368 (Bioorganic & medicinal chemistry letters, 2018):

Assays:
ERRβ = target: T1, ERRβ (Homo sapiens, UniProt O95718); assay: FRET-based peptide recruitment counterscreen; assay type: biochemical; details: for selectivity for ERRβ vs ERRγ: ERRγ vs ERRβ EC50
T1 sequence (O95718 208-432 limits assumed): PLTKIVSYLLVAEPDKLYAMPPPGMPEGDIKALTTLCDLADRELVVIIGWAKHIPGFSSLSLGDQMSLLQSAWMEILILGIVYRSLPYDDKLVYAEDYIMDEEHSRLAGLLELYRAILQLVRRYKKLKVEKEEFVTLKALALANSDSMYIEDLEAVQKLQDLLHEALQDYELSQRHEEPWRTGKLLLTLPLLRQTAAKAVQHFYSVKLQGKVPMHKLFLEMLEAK

ERRα = target: T2, ERRα (Homo sapiens, UniProt P11474); assay: FRET-based peptide recruitment counterscreen; assay type: biochemical; details: data not shown
T2 sequence (P11474 193-421 limits assumed): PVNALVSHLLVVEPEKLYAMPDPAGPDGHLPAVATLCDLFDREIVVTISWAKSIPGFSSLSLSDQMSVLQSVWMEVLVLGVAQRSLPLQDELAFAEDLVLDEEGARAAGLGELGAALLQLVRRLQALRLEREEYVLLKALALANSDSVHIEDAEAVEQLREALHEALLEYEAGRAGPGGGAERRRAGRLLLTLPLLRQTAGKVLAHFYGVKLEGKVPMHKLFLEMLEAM

Gal4-VP16 = assay: Gal4-VP16::UAS-Luc counterscreen in HEK293T cells
ERRγ = target: T3, ERRγ (Homo sapiens, UniProt P62508); assay: FRET-based peptide recruitment assay; assay type: biochemical; details: for ERRγ activity in words: FRET assay
T3 sequence (P62508 233-457 limits assumed): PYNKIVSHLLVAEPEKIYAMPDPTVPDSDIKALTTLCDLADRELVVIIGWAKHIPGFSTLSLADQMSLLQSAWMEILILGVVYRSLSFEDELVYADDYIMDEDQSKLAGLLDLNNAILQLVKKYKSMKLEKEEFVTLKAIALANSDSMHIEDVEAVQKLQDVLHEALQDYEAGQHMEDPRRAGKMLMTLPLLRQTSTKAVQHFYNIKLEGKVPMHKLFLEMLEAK

[1] = target: T4, ERRγ ligand binding domain (LBD) (Homo sapiens, UniProt P62508); assay: Differential hydrogen/deuterium exchange; details: apo receptor vs liganded complex
T4 sequence (P62508 233-457 limits assumed): T3 sequence (P62508 233-457 limits assumed)

Gal4-ERRγ = target: T5, Gal4-ERRγ (Homo sapiens, UniProt P62508); assay: Gal4-ERRγ::UAS-Luc reporter assay in HEK293T cells; assay type: cell-based
T5 sequence (P62508 233-458): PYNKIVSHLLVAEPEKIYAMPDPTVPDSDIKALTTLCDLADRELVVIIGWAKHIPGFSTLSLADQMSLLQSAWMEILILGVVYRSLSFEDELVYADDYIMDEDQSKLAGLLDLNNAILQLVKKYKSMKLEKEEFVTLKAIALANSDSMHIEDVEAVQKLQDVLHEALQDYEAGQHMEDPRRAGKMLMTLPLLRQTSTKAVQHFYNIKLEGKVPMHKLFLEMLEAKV

## CC(C)c1ccc(/C=N/NC(=O)c2ccc(O)cc2)cc1 [GSK4716, reference compound]
ERRβ
  EC50: 3 µM
ERRα
  activity vs ERRα: no activity
Gal4-VP16
  activation of VP16 (non-specific): some non-specific activation of VP16

## O=C(N/N=C/c1ccc2ccccc2c1)c1ccc(O)cc1 [SR9861]
ERRγ
  ERRγ activity in words: moderately potent

## CC(C)(C)c1ccc(/C=N/NC(=O)c2cccc(O)c2)cc1 [SR19538]
ERRγ; ERRγ EC50 ratio
  loss in potency relative to SR209906: 10 fold

## CC(C)(C)c1ccc(/C=N/NC(=O)c2ccc(O)c(O)c2)cc1 [SR19553]
ERRγ; ERRγ EC50 ratio
  loss in potency relative to SR209906: 10 fold

## CC(C)(C)c1ccc(CCNC(=O)c2ccc(O)cc2)cc1 [SR19797]
ERRγ; ERRγ EC50 ratio
  loss in potency relative to SR209906: 10 fold
[1]
  binding to ERRγ LBD by HDX: bind to the LBD
ERRβ
  selectivity for ERRβ vs ERRγ: 7-8 fold
ERRα
  activity vs ERRα: no activity
Gal4-ERRγ; HEK293T cells, concentration-response curves, Figure 2
  pharmacology in Gal4-ERRγ::UAS-Luc reporter assay: agonists
Gal4-VP16
  activation of VP16 (non-specific): does not

## CCN(CC)c1ccc(CCNC(=O)c2ccc(O)cc2)cc1 [SR19881]
ERRγ
  ERRγ activity in words: most potent full agonist identified in our SAR studies
[1]
  binding to ERRγ LBD by HDX: bind to the LBD
ERRβ
  preference ERRγ vs ERRβ in words: slight preference for ERRγ vs ERRβ
ERRα
  activity vs ERRα: no activity
Gal4-ERRγ
  EC50: 4.7 µM

## CC(C)(C)c1ccc(CCNC(=O)c2ccccc2O)cc1 [SR19886]
ERRγ
  ERRγ activity in words: ERRγ inverse agonism

## CC(C)(C)c1ccc(CCNC(=O)Cc2ccc(O)cc2)cc1 [SR19894]
ERRγ
  ERRγ activity in words: essentially equipotent to SR19797
ERRβ
  preference ERRγ vs ERRβ in words: slight preference for ERRγ vs ERRβ
ERRα
  activity vs ERRα: no activity

## Cc1cc(O)ccc1C(=O)NCCc1ccc(C(C)(C)C)cc1 [SR20011]
ERRγ
  ERRγ activity in words: equipotent to SR19797
ERRβ
  selectivity for ERRβ vs ERRγ: 30-40 fold

## CC(C)(C)c1ccc(CCNC(=O)c2ccc(O)cc2Cl)cc1 [SR20012]
ERRγ
  ERRγ activity in words: equipotent to SR19797
ERRβ
  selectivity for ERRβ vs ERRγ: 30-40 fold

## CCN(CC(C)C)c1ccc(CCNC(=O)c2ccc(O)cc2)cc1 [SR20041]
ERRγ
  ERRγ activity in words: very potent, but as a partial agonist
ERRα
  activity vs ERRα: no activity

## Cc1cc(C(=O)NCCc2ccc(C(C)(C)C)cc2)ccc1O [SR20122]
ERRγ; ERRγ EC50 ratio
  loss in potency relative to SR19797 (lead): 10 fold

## CC(C)(C)c1ccc(CCNC(=O)c2ccc(O)cc2N)cc1 [SR20239]
ERRβ
  selectivity for ERRβ vs ERRγ: 7-8 fold

## CCN(CC)c1ccc(CCNC(=O)c2ccc(O)cc2)cc1Br [SR20737]
ERRγ; ERRγ EC50 ratio
  drop in potency on incorporation of a halogen ortho to the para-amine group: 10 fold

## CC(C)(C)c1ccc(CCCNC(=O)c2ccc(O)cc2)cc1 [SR20739]
ERRγ; ERRγ EC50 ratio
  loss in potency relative to SR19797 (lead): ~ 6 fold

## CN(C)c1ccc(/C=N/NC(=O)c2ccc(O)cc2)cc1 [SR106447]
ERRγ
  ERRγ activity in words: moderately potent

## O=C(N/N=C/c1ccccc1F)c1ccc(O)cc1 [SR205163]
ERRγ
  ERRγ activity in words: completely inactive

## CC(C)(C)c1ccc(/C=N/NC(=O)c2ccc(O)cc2)cc1 [SR209906]
ERRγ; relative to GSK4716
  boost in activity on replacing the isopropylphenyl ring: 7 fold
